# Measured values: US10131652B2, “Pyrimidinyloxy benzene derivatives as herbicides” (E. I. DU PONT DE NEMOURS AND COMPANY, priority 2014, dated 2018)
# What was measured:
# Type in all cases: in vivo
# [1] = system: Italian ryegrass (Lolium multiflorum); assay: Test B pre-/postemergence plant response
# Method in brief: (§1)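 Evaluation is visual, about 10 days after application, rating injury from 0 (none) to 100 (complete control) relative to untreated controls. Application was a preemergence soil spray on seeded pots or a postemergence spray on one- to two-leaf plants.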
# kochia (Kochia scoparia) = assay: Test B pre-/postemergence plant response
# Method in brief: as §1
# [2] = system: ragweed (common ragweed, Ambrosia elatior); assay: Test B pre-/postemergence plant response
# Method in brief: as §1
# [3] = system: Italian ryegrass (Lolium multiflorum); assay: Test D pre-/postemergence plant response; details: Postemergence; for Plant response rating, Ryegrass, Italian: scale 0 to 100, 0 no effect, 100 complete control
# Method in brief: (§2)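 Visual rating, 0–100 scale (0 = no effect, 100 = complete control), versus untreated controls 13 to 15 days after treatment in greenhouse. Preemergence: seeds in loam/sand soil. Postemergence: 2 to 18 cm plants, 1- to 4-leaf stage, peat-based medium. Compounds formulated in non-phytotoxic solvent plus surfactant.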
# [4] = system: barnyardgrass (Echinochloa crus-galli); assay: Test D pre-/postemergence plant response; details: Postemergence; for Barnyardgrass plant response rating: scale 0 to 100 (0 no effect, 100 complete control); for Plant response rating, Barnyardgrass: scale 0 to 100, 0 no effect, 100 complete control
# Method in brief: as §2
# [5] = system: blackgrass (Alopecurus myosuroides); assay: Test D pre-/postemergence plant response; details: Postemergence; for Blackgrass plant response rating: scale 0 to 100 (0 no effect, 100 complete control); for Plant response rating, Blackgrass: scale 0 to 100, 0 no effect, 100 complete control
# Method in brief: as §2
# corn (Zea mays) = assay: Test D pre-/postemergence plant response; details: Postemergence; for Corn plant response rating: scale 0 to 100 (0 no effect, 100 complete control); for Plant response rating, Corn: scale 0 to 100, 0 no effect, 100 complete control
# Method in brief: as §2
# [6] = system: galium (catchweed bedstraw, Galium aparine); assay: Test D pre-/postemergence plant response; details: Postemergence; for Plant response rating, Galium: scale 0 to 100, 0 no effect, 100 complete control
# Method in brief: as §2
# [7] = system: giant foxtail (Setaria faberii); assay: Test D pre-/postemergence plant response; details: Postemergence; for Foxtail, Giant plant response rating: scale 0 to 100 (0 no effect, 100 complete control); for Plant response rating, Foxtail, Giant: scale 0 to 100, 0 no effect, 100 complete control
# Method in brief: as §2
# [8] = system: large (Lg) crabgrass (Digitaria sanguinalis); assay: Test D pre-/postemergence plant response; details: Postemergence; for Crabgrass, Large plant response rating: scale 0 to 100 (0 no effect, 100 complete control); for Plant response rating, Crabgrass, Large: scale 0 to 100, 0 no effect, 100 complete control
# Method in brief: as §2
# [9] = system: oilseed rape (Brassica napus); assay: Test D pre-/postemergence plant response; details: Postemergence; for Plant response rating, Oilseed Rape: scale 0 to 100, 0 no effect, 100 complete control
# Method in brief: as §2
# [10] = system: pigweed (Amaranthus retroflexus); assay: Test D pre-/postemergence plant response; details: Postemergence; for Plant response rating, Pigweed: scale 0 to 100, 0 no effect, 100 complete control
# Method in brief: as §2
# [11] = system: ragweed (common ragweed, Ambrosia elatior); assay: Test D pre-/postemergence plant response; details: Postemergence; for Plant response rating, Ragweed: scale 0 to 100, 0 no effect, 100 complete control
# Method in brief: as §2
# [12] = system: yellow nutsedge (Cyperus esculentus); assay: Test D pre-/postemergence plant response; details: Postemergence; for Plant response rating, Nutsedge, Yellow: scale 0 to 100, 0 no effect, 100 complete control
# Method in brief: as §2
# [13] = 31 g ai/ha, Preemergence, 0 to 100 scale where 0 is no effect and 100 is complete control
# [14] = 125 g ai/ha, postemergence, 0 to 100 scale, 0 no effect, 100 complete control
# [15] = Preemergence, 125 g ai/ha, 0 to 100 scale (0 no effect, 100 complete control)
# [16] = 31 g ai/ha, scale 0 to 100 (0 no effect, 100 complete control)
compound,measurement,setting,value
Fc1cccc(Oc2ncc(Cl)cn2)c1-c1cc(C2CC2)on1 [Compound 130],"Plant response rating, Ryegrass, Italian",[1]; [13],20
same,"Plant response rating, Ryegrass, Italian",[1]; [14],60
same,"Ryegrass, Italian plant response rating",[1]; [15],50
same,"Plant response rating, Kochia",kochia (Kochia scoparia); [13],50
same,"Plant response rating, Kochia",kochia (Kochia scoparia); [14],90
same,Kochia plant response rating,kochia (Kochia scoparia); [15],70
same,"Plant response rating, Ragweed",[2]; [13],10
same,"Plant response rating, Ragweed",[2]; [14],60
same,Ragweed plant response rating,[2]; [15],20
same,"Ryegrass, Italian plant response rating",[3]; [16],5
same,"Plant response rating, Ryegrass, Italian",[3]; 62 g ai/ha,10
same,"Plant response rating, Ryegrass, Italian",[3]; 125 g ai/ha,15
same,Barnyardgrass plant response rating,[4]; 16 g ai/ha,10
same,Barnyardgrass plant response rating,[4]; 31 g ai/ha,10
same,"Plant response rating, Barnyardgrass",[4]; 62 g ai/ha,10
same,"Plant response rating, Barnyardgrass",[4]; 125 g ai/ha,25
same,Blackgrass plant response rating,[5]; 16 g ai/ha,0
same,Blackgrass plant response rating,[5]; 31 g ai/ha,5
same,"Plant response rating, Blackgrass",[5]; 62 g ai/ha,20
same,"Plant response rating, Blackgrass",[5]; 125 g ai/ha,30
same,Corn plant response rating,corn (Zea mays); 16 g ai/ha,10
same,Corn plant response rating,corn (Zea mays); 31 g ai/ha,25
same,"Plant response rating, Corn",corn (Zea mays); 62 g ai/ha,10
same,"Plant response rating, Corn",corn (Zea mays); 125 g ai/ha,10
same,Galium plant response rating,[6]; [16],90
same,"Plant response rating, Galium",[6]; 62 g ai/ha,95
same,"Plant response rating, Galium",[6]; 125 g ai/ha,100
same,"Foxtail, Giant plant response rating",[7]; 16 g ai/ha,5
same,"Foxtail, Giant plant response rating",[7]; 31 g ai/ha,5
same,"Plant response rating, Foxtail, Giant",[7]; 62 g ai/ha,10
same,"Plant response rating, Foxtail, Giant",[7]; 125 g ai/ha,25
same,"Crabgrass, Large plant response rating",[8]; 16 g ai/ha,10
same,"Crabgrass, Large plant response rating",[8]; 31 g ai/ha,20
same,"Plant response rating, Crabgrass, Large",[8]; 62 g ai/ha,20
same,"Plant response rating, Crabgrass, Large",[8]; 125 g ai/ha,25
same,Oilseed Rape plant response rating,[9]; [16],80
same,"Plant response rating, Oilseed Rape",[9]; 62 g ai/ha,75
same,"Plant response rating, Oilseed Rape",[9]; 125 g ai/ha,95
same,Pigweed plant response rating,[10]; [16],95
same,"Plant response rating, Pigweed",[10]; 62 g ai/ha,98
same,"Plant response rating, Pigweed",[10]; 125 g ai/ha,98
same,Ragweed plant response rating,[11]; [16],60
same,"Plant response rating, Ragweed",[11]; 62 g ai/ha,75
same,"Plant response rating, Ragweed",[11]; 125 g ai/ha,40
same,"Nutsedge, Yellow plant response rating",[12]; [16],5
same,"Plant response rating, Nutsedge, Yellow",[12]; 62 g ai/ha,20
same,"Plant response rating, Nutsedge, Yellow",[12]; 125 g ai/ha,25
